Test results from ChEMBL document CHEMBL3045481, “Insecticide-induced resurgence of the whitebacked planthopper Sogatella furcifera (Horvath) (Hemiptera: Delphacidae) on rice varieties with different levels of resistance” (Crop Prot, 2011).

What was measured:
Oryza sativa [1] = assay: Effect on total sugar level in Sogatella furcifera-sensitive Oryza sativa (rice) plant ARC6248 leaf sheath measured per gram of dry weight at 0.030% concentration (reference value: 25.98 mg/g dry wt); assay type: ADME, organism-based; conditions: in vivo
Oryza sativa [2] = assay: Effect on total sugar level in Sogatella furcifera-resistanct Oryza sativa (rice) plant PR116 leaf sheath measured per gram of dry weight at 0.030% concentration (reference value: 30.27 mg/g dry wt); assay type: ADME, organism-based; conditions: in vivo
Sogatella furcifera [3] = assay: Insecticidal activity against Sogatella furcifera on insect-sensitive rice plant ARC6248 assessed as growth index at 0.030% concentration (reference value: 2.38%); assay type: functional
Sogatella furcifera [4] = assay: Insecticidal activity against Sogatella furcifera on insect-resistanct rice plant PR116 assessed as growth index at 0.030% concentration (reference value: 6.02%); assay type: functional
Sogatella furcifera [5] = assay: Insecticidal activity against Sogatella furcifera on insect-sensitive rice plant ARC6248 assessed as nymphal duration at 0.030% concentration (reference value: 14.48 days); assay type: functional
Sogatella furcifera [6] = assay: Insecticidal activity against Sogatella furcifera on insect-resistanct rice plant PR116 assessed as nymphal duration at 0.030% concentration (reference value: 11.75 days); assay type: functional
Sogatella furcifera [7] = assay: Insecticidal activity against Sogatella furcifera on insect-sensitive rice plant ARC6248 assessed as resurgence ratio at 0.030% concentration; assay type: functional
Sogatella furcifera [8] = assay: Insecticidal activity against Sogatella furcifera on insect-resistanct rice plant PR116 assessed as resurgence ratio at 0.030% concentration; assay type: functional
Oryza sativa [9] = assay: Effect on total amino acids level in Sogatella furcifera-sensitive Oryza sativa (rice) plant ARC6248 leaf sheath measured per gram of dry weight at 0.030% concentration (reference value: 2.11 mg/g fresh wt); assay type: ADME, organism-based; conditions: in vivo
Oryza sativa [10] = assay: Effect on total amino acids level in Sogatella furcifera-sensitive Oryza sativa (rice) plant ARC6248 leaf blade measured per gram of dry weight at 0.030% concentration (reference value: 3.54 mg/g fresh wt); assay type: ADME, organism-based; conditions: in vivo
Oryza sativa [11] = assay: Effect on total amino acids level in Sogatella furcifera-resistanct Oryza sativa (rice) plant PR116 leaf blade measured per gram of dry weight at 0.030% concentration (reference value: 3.91 mg/g […]); assay type: ADME, organism-based; conditions: in vivo
Oryza sativa [12] = assay: Effect on total protein level in Sogatella furcifera-sensitive Oryza sativa (rice) plant ARC6248 leaf blade measured per gram of dry weight at 0.030% concentration (reference value: 17.67 mg/g […]); assay type: ADME, organism-based; conditions: in vivo
Oryza sativa [13] = assay: Effect on total phenols level in Sogatella furcifera-resistanct Oryza sativa (rice) plant PR116 leaf blade measured per gram of dry weight at 0.030% concentration (reference value: 8.08 mg/g dry wt); assay type: ADME, organism-based; conditions: in vivo
Oryza sativa [14] = assay: Effect on reducing sugar level in Sogatella furcifera-sensitive Oryza sativa (rice) plant ARC6248 leaf blade measured per gram of dry weight at 0.030% concentration (reference value: 8.37 mg/g dry wt); assay type: ADME, organism-based; conditions: in vivo
Oryza sativa [15] = assay: Effect on total protein level in Sogatella furcifera-resistanct Oryza sativa (rice) plant PR116 leaf blade measured per gram of dry weight at 0.030% concentration (reference value: 21.67 mg/g fresh wt); assay type: ADME, organism-based; conditions: in vivo
Oryza sativa [16] = assay: Effect on total phenols level in Sogatella furcifera-sensitive Oryza sativa (rice) plant ARC6248 leaf blade measured per gram of dry weight at 0.030% concentration (reference value: 17.08 mg/g dry wt); assay type: ADME, organism-based; conditions: in vivo
Oryza sativa [17] = assay: Effect on reducing sugar level in Sogatella furcifera-resistanct Oryza sativa (rice) plant PR116 leaf blade measured per gram of dry weight at 0.030% concentration (reference value: 9.35 mg/g dry wt); assay type: ADME, organism-based; conditions: in vivo
Oryza sativa [18] = assay: Effect on total sugar level in Sogatella furcifera-sensitive Oryza sativa (rice) plant ARC6248 leaf blade measured per gram of dry weight at 0.030% concentration (reference value: 34.05 mg/g dry wt); assay type: ADME, organism-based; conditions: in vivo
Oryza sativa [19] = assay: Effect on total sugar level in Sogatella furcifera-resistanct Oryza sativa (rice) plant PR116 leaf blade measured per gram of dry weight at 0.030% concentration (reference value: 36.16 mg/g dry wt); assay type: ADME, organism-based; conditions: in vivo
Oryza sativa [20] = assay: Effect on total amino acids level in Sogatella furcifera-resistanct Oryza sativa (rice) plant PR116 leaf sheath measured per gram of dry weight at 0.030% concentration (reference value: 2.58 mg/g […]); assay type: ADME, organism-based; conditions: in vivo
Oryza sativa [21] = assay: Effect on total protein level in Sogatella furcifera-sensitive Oryza sativa (rice) plant ARC6248 leaf sheath measured per gram of dry weight at 0.030% concentration (reference value: 6.11 mg/g […]); assay type: ADME, organism-based; conditions: in vivo
Oryza sativa [22] = assay: Effect on total protein level in Sogatella furcifera-resistanct Oryza sativa (rice) plant PR116 leaf sheath measured per gram of dry weight at 0.030% concentration (reference value: 7.06 mg/g fresh wt); assay type: ADME, organism-based; conditions: in vivo
Oryza sativa [23] = assay: Effect on total phenols level in Sogatella furcifera-sensitive Oryza sativa (rice) plant ARC6248 leaf sheath measured per gram of dry weight at 0.030% concentration (reference value: 12.75 mg/g dry wt); assay type: ADME, organism-based; conditions: in vivo
Sogatella furcifera [24] = assay: Insecticidal activity against Sogatella furcifera on insect-sensitive rice plant ARC6248 assessed as nymphal survival at 0.030% concentration (reference value: 34.17%); assay type: functional
Sogatella furcifera [25] = assay: Insecticidal activity against Sogatella furcifera on insect-resistanct rice plant PR116 assessed as nymphal survival at 0.030% concentration (reference value: 70.28%); assay type: functional
Oryza sativa [26] = assay: Effect on total phenols level in Sogatella furcifera-resistanct Oryza sativa (rice) plant PR116 leaf sheath measured per gram of dry weight at 0.030% concentration (reference value: 5.75 mg/g dry wt); assay type: ADME, organism-based; conditions: in vivo
Oryza sativa [27] = assay: Effect on reducing sugar level in Sogatella furcifera-sensitive Oryza sativa (rice) plant ARC6248 leaf sheath measured per gram of dry weight at 0.030% concentration (reference value: 6.41 mg/g dry wt); assay type: ADME, organism-based; conditions: in vivo
Oryza sativa [28] = assay: Effect on reducing sugar level in Sogatella furcifera-resistanct Oryza sativa (rice) plant PR116 leaf sheath measured per gram of dry weight at 0.030% concentration (reference value: 7.50 mg/g dry wt); assay type: ADME, organism-based; conditions: in vivo

COP(=S)(OC)Oc1ccc([N+](=O)[O-])cc1 [METHYL PARATHIONE]
Activity (Oryza sativa [1]): 33.21 mg
Activity (Oryza sativa [2]): 33.48 mg
growth inhibition (GI) (Sogatella furcifera [3]): 2.87%
growth inhibition (GI) (Sogatella furcifera [4]): 6.76%
Time (Sogatella furcifera [5]): 14.35 days
Time (Sogatella furcifera [6]): 11.57 days
Ratio (Sogatella furcifera [7]): 1.26
Ratio (Sogatella furcifera [8]): 1.69
Activity (Oryza sativa [9]): 2.86 mg
Activity (Oryza sativa [10]): 4.04 mg
Activity (Oryza sativa [11]): 4.53 mg
Activity (Oryza sativa [12]): 21.17 mg
Activity (Oryza sativa [13]): 7.5 mg
Activity (Oryza sativa [14]): 10.54 mg
Activity (Oryza sativa [15]): 23.33 mg
Activity (Oryza sativa [16]): 16.08 mg
Activity (Oryza sativa [17]): 14.89 mg
Activity (Oryza sativa [18]): 39.37 mg
Activity (Oryza sativa [19]): 38.3 mg
Activity (Oryza sativa [20]): 3.64 mg
Activity (Oryza sativa [21]): 8.33 mg
Activity (Oryza sativa [22]): 8.67 mg
Activity (Oryza sativa [23]): 11.08 mg
Survival (Sogatella furcifera [24]): 40.83%
Survival (Sogatella furcifera [25]): 77.78%
Activity (Oryza sativa [26]): 5.58 mg
Activity (Oryza sativa [27]): 9.89 mg
Activity (Oryza sativa [28]): 11.63 mg
